# According to ChEMBL document CHEMBL5050844 (2019):
# Key:
# [1] = biological target: T1, E3 ubiquitin-protein ligase CBL-B (Homo sapiens, UniProt Q13191); test: Inhibition of N-terminal Avi-tagged human CBL-B (36 to 427 residues) incubated with 30 nM Src kinase for 1.5 hrs followed by incubation with fluorescently labeled UbcH5B-Ub for 1 hr and measured by TR-FRET assay
# [2] = Induction of anti-CD3/CD28 antibodies-stimulated human T cell activation at 0.3 uM assessed fold increase in CD25 expression measured by ELISA assay; assay type: functional, T cell line
# [3] = Induction of anti-CD3 antibodies-stimulated human T cell activation at 1 uM assessed fold increase in CD25 expression measured by ELISA assay; assay type: functional, T cell line; further: reference of the scale not given here
# [4] = Induction of anti-CD3 antibodies-stimulated human CD4+ T cell activation in immunocompetent mouse assessed fold increase in CD25 expression at 135 mg/kg, po administered twice a day; assay type: functional; further: reference of the scale not given here
# [5] = biological target: T1, E3 ubiquitin-protein ligase CBL-B; test: Inhibition of N-terminal Avi-tagged human CBL-B (36 to 427 residues) incubated with 60 nM Src kinase for 1.5 hrs followed by incubation with fluorescently labeled UbcH5B-Ub for 1 hr and measured by TR-FRET assay; assay type: single protein
# [6] = Induction of anti-CD3/CD28 antibodies-stimulated human T cell activation at 1 uM assessed fold increase in CD25 expression measured by ELISA assay; assay type: functional, T cell line
# [7] = Induction of anti-CD3 antibodies-stimulated human T cell activation at 1 uM assessed fold increase in IL-2 secretion measured by ELISA assay; assay type: functional, T cell line; further: reference of the scale not given here
# [8] = Induction of anti-CD3/CD28 antibodies-stimulated human T cell activation at 0.3 uM assessed fold increase in IL-2 secretion measured by ELISA assay; assay type: functional, T cell line
# [9] = Induction of anti-CD3/CD28 antibodies-stimulated human T cell activation at 1 uM assessed fold increase in IL-2 secretion measured by ELISA assay; assay type: functional, T cell line
# [10] = Induction of anti-CD3 antibodies-stimulated human CD8+ T cell activation in immunocompetent mouse assessed fold increase in CD25 expression at 90 mg/kg, po administered twice a day; assay type: functional; further: reference of the scale not given here
# [11] = Induction of anti-CD3 antibodies-stimulated human exhausted T cell activation assessed fold increase in GM-CSF secretion measured by ELISA assay; assay type: functional, T cell line; further: reference of the scale not given here
# B cell = test: Induction of anti-IgM-stimulated human CD20+ B cell activation at 10 to 1000 uM assessed as increase in CD69 expression measured as mean fluorescence intensity AUC by flow cytometry analysis; assay type: functional, cell-based; conditions: dose 10-1000 µM
# [12] = Induction of anti-CD3/CD28 antibodies-stimulated human T cell activation at 4 uM assessed fold increase in IL-2 secretion measured by ELISA assay; assay type: functional, T cell line
# [13] = Induction of activation of human CD56+ CD3- NK cells co-cultured with human K562 cells in 1:1 ratio and assessed as increase in TNF-alpha secretion at 10 uM measured by ELISA assay; assay type: functional, Natural killer cell
# [14] = Induction of anti-CD3 antibodies-stimulated human exhausted CD4+ T cell activation assessed fold increase in CTLA4 expression measured by flow cytometry analysis; assay type: functional, T cell line; further: reference of the scale not given here
# [15] = Induction of anti-CD3/CD28 antibodies-stimulated human anergic T cell activation at 1.11 uM assessed fold increase in IFN-gamma secretion measured by ELISA assay; assay type: functional, T cell line
# [16] = Induction of anti-CD3 antibodies-stimulated human exhausted T cell activation assessed fold increase in IFN-gamma secretion measured by ELISA assay; assay type: functional, T cell line; further: reference of the scale not given here
# [17] = Induction of anti-CD3/CD28 antibodies-stimulated human anergic T cell activation at 10 uM assessed fold increase in IFN-gamma secretion measured by ELISA assay; assay type: functional, T cell line
# [18] = Induction of activation of human CD56+ CD3- NK cells co-cultured with human K562 cells in 1:1 ratio and assessed as increase in IFN-gamma secretion at 2.5 uM measured by ELISA assay; assay type: functional, Natural killer cell
# [19] = Induction of anti-CD3 antibodies-stimulated human T cell activation at 8 uM assessed fold increase in CD25 expression measured by ELISA assay; assay type: functional, T cell line; further: reference of the scale not given here
# [20] = Induction of activation of human CD56+ CD3- NK cells co-cultured with human K562 cells in 1:1 ratio and assessed as increase in IFN-gamma secretion at 10 uM measured by ELISA assay; assay type: functional, Natural killer cell
# [21] = Induction of activation of human CD56+ CD3- NK cells co-cultured with human K562 cells in 1:1 ratio and assessed as increase in IFN-gamma secretion at 0.625 uM measured by ELISA assay; assay type: functional, Natural killer cell
# [22] = Induction of allogenic human T cell activation at 3 uM assessed fold increase in cell proliferation; assay type: functional, T cell line
# [23] = Induction of anti-CD3 antibodies-stimulated human exhausted CD8+ T cell activation assessed fold increase in CTLA4 expression measured by flow cytometry analysis; assay type: functional, T cell line; further: reference of the scale not given here
# [24] = Induction of anti-CD3/CD28 antibodies-stimulated human anergic T cell activation at 0.37 uM assessed fold increase in IFN-gamma secretion measured by ELISA assay; assay type: functional, T cell line
# [25] = Induction of activation of human CD56+ CD3- NK cells co-cultured with human K562 cells in 1:1 ratio and assessed as increase in TNF-alpha secretion at 2.5 uM measured by ELISA assay; assay type: functional, Natural killer cell
# [26] = Induction of anti-CD3/CD28 antibodies-stimulated human T cell activation at 4 uM assessed fold increase in CD25 expression measured by ELISA assay; assay type: functional, T cell line
# [27] = Induction of anti-CD3 antibodies-stimulated human T cell activation at 8 uM assessed fold increase in IL-2 secretion measured by ELISA assay; assay type: functional, T cell line; further: reference of the scale not given here
# [28] = Induction of allogenic human T cell activation at 10 uM assessed fold increase in cell proliferation; assay type: functional, T cell line
# [29] = Induction of anti-CD3 antibodies-stimulated human exhausted T cell activation assessed fold increase in IL-2 secretion measured by ELISA assay; assay type: functional, T cell line; further: reference of the scale not given here
# [30] = Induction of activation of human CD56+ CD3- NK cells co-cultured with human K562 cells in 1:1 ratio and assessed as increase in TNF-alpha secretion at 0.625 uM measured by ELISA assay; assay type: functional, Natural killer cell
# [31] = biological target: T1, E3 ubiquitin-protein ligase CBL-B; test: Binding affinity towards N-terminal biotinylated Avi-tagged human CBL-B (36 to 427 residues) measured by surface plasmon resonance assay
# T1 sequence (Q13191 whole entry, the tested form may be a part): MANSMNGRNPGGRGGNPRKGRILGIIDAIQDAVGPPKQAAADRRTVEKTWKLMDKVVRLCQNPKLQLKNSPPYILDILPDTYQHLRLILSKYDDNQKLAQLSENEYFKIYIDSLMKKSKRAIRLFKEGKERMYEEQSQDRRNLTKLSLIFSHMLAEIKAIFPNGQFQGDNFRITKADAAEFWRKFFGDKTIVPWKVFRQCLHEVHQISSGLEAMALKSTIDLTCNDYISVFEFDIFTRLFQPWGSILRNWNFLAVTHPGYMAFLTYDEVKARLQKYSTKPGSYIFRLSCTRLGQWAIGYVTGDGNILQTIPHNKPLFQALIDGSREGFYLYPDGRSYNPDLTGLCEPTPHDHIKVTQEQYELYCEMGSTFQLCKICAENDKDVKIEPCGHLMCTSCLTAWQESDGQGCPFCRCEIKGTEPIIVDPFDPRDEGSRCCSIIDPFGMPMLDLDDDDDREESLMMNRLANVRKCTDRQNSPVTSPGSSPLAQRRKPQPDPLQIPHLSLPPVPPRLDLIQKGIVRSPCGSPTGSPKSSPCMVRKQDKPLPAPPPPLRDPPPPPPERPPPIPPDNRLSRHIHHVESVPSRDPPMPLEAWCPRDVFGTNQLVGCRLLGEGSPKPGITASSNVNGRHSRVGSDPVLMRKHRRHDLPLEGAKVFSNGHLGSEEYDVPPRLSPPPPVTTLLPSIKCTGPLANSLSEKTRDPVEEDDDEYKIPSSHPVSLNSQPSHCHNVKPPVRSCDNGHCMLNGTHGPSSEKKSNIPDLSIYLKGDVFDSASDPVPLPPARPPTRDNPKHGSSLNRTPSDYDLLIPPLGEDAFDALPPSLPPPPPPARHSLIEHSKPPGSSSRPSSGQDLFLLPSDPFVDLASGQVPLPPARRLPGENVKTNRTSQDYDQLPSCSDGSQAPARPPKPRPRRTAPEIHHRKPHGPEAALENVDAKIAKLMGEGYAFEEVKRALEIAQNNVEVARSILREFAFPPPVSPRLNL
smiles,measurement,setting,value
CC(Sc1nncn1C)c1cc(CO)cc(NC(=O)c2ccc3ccccc3n2)c1 (centres undefined),IC50,[1],> 10000 nM
CN1CC2CCC(C1)N2c1cc2c(c(C(F)(F)F)c1)CN(c1cccc(C3(Cc4nncn4C)COC3)c1)C2=O,fold change (FC),[2],1.31
same,fold change (FC),[3],>=1.001
same,fold change (FC),[4],1
same,IC50,[5],< 100 nM
same,fold change (FC),[6],1.31
same,fold change (FC),[7],>=0.201
same,fold change (FC),[8],>=7.5
same,fold change (FC),[9],>=7.5
same,fold change (FC),[10],1
C[C@H](c1cc2c(c(C(F)(F)F)c1)CN(c1cccc(C3(Cc4nncn4C)COC3)c1)C2=O)N1CCC(C)(F)CC1,fold change (FC),[2],>=1.76
same,fold change (FC),[3],>=1.001
same,fold change (FC),[4],>2.5
same,IC50,[5],< 100 nM
same,fold change (FC),[6],>=1.76
same,fold change (FC),[7],>=0.201
same,fold change (FC),[8],>=7.5
same,fold change (FC),[9],>=7.5
same,fold change (FC),[10],1
Cn1cnnc1CC1(c2cccc(N3Cc4c(cc(CN5CC6(CC6)C5)cc4C(F)(F)F)C3=O)c2)COC1,fold change (FC),[2],1.31
same,fold change (FC),[3],>=1.001
same,fold change (FC),[4],1.51
same,IC50,[5],< 100 nM
same,fold change (FC),[6],1.31
same,fold change (FC),[7],>=0.201
same,fold change (FC),[8],>=7.5
same,fold change (FC),[9],>=7.5
same,fold change (FC),[10],1
C[C@H](Cc1nncn1C)c1ccnc(NC(=O)c2cccc(C(F)(F)F)n2)c1,fold change (FC),[11],<=1.4
same,fold change (FC),[2],1.01
same,AUC,B cell,0.5
same,fold change (FC),[3],<=0.6
same,fold change (FC),[12],>=7.5
same,fold change (FC),[13],1.01
same,fold change (FC),[14],<=1.4
same,fold change (FC),[15],<=2.5
same,fold change (FC),[16],<=1.4
same,fold change (FC),[17],<=2.5
same,fold change (FC),[6],1.01
same,fold change (FC),[7],<=0.05
same,fold change (FC),[18],<=1
same,fold change (FC),[8],2.51
same,fold change (FC),[19],0.801
same,fold change (FC),[20],2.01
same,fold change (FC),[21],1.01
same,fold change (FC),[22],<=2
same,fold change (FC),[23],<=1.4
same,fold change (FC),[24],<=2.5
same,fold change (FC),[25],1.01
same,fold change (FC),[26],1.01
same,fold change (FC),[27],0.051
same,fold change (FC),[9],2.51
same,fold change (FC),[28],<=2
same,fold change (FC),[29],<=2.5
same,fold change (FC),[30],1.01
Cn1cnnc1[C@H](F)C1(c2cccc(N3Cc4c(cc(CN5CCC(F)CC5)cc4C(F)(F)F)C3=O)c2)COC1,fold change (FC),[2],>=1.76
same,fold change (FC),[3],>=1.001
same,fold change (FC),[4],1.51
same,Kd,[31],< 100 nM
same,IC50,[5],< 100 nM
same,fold change (FC),[6],>=1.76
same,fold change (FC),[7],>=0.201
same,fold change (FC),[8],>=7.5
same,fold change (FC),[9],>=7.5
same,fold change (FC),[10],1
Cn1cnnc1CC1(c2cccc(NC(=O)c3cc(CN4CC[C@H](F)C4)cc(C4CC4)n3)c2)COC1,fold change (FC),[2],1.51
same,fold change (FC),[3],>=1.001
same,fold change (FC),[4],1.51
same,Kd,[31],< 100 nM
same,IC50,[5],< 100 nM
same,fold change (FC),[6],1.51
same,fold change (FC),[7],>=0.201
same,fold change (FC),[8],>=7.5
same,fold change (FC),[9],>=7.5
same,fold change (FC),[10],1
Cn1cnnc1C(F)(F)[C@](C)(F)c1cccc(N2Cc3c(cc(N4CCNCC4)cc3C(F)(F)F)C2=O)c1,fold change (FC),[11],<=1.4
same,fold change (FC),[2],1.31
same,AUC,B cell,0.5
same,fold change (FC),[3],>=1.001
same,fold change (FC),[12],>=7.5
same,fold change (FC),[13],2.01
same,fold change (FC),[15],2.51
same,IC50,[5],< 100 nM
same,fold change (FC),[16],1.41
same,fold change (FC),[17],2.51
same,fold change (FC),[6],1.51
same,fold change (FC),[7],>=0.201
same,fold change (FC),[18],2.01
same,fold change (FC),[8],2.51
same,fold change (FC),[19],0.801
same,fold change (FC),[20],2.01
same,fold change (FC),[21],1.01
same,fold change (FC),[22],<=2
same,fold change (FC),[24],<=2.5
same,fold change (FC),[25],2.01
same,fold change (FC),[26],1.51
same,fold change (FC),[27],0.051
same,fold change (FC),[9],>=7.5
same,fold change (FC),[28],<=2
same,fold change (FC),[29],>3.01
same,fold change (FC),[30],2.01
Cn1cnnc1CC1(c2cccc(N3Cc4c(cc(CN5CCC(F)CC5)cc4C(F)(F)F)C3=O)c2)COC1,fold change (FC),[4],1.51
same,IC50,[5],< 100 nM
same,fold change (FC),[10],1
